In patent US20130209543A1, “ENHANCED TREATMENT REGIMENS USING MTOR INHIBITORS” (Intellikine LLC, priority 2011, published 2013):

Experiment: Phase I clinical trial: grade 3 or greater treatment-emergent adverse events (Table 9)
Assay type: in vivo
Protocol: Adult patients with histologically confirmed advanced solid tumors were enrolled in a 3+3 dose escalation Phase I study evaluating 3 intermittent schedules of administration for compound A: QW (once weekly), QD×3d QW (3 days on 4 days off), and QD×5d QW (5 days on 2 days off), in comparison with daily dosing (QD). Safety, maximum tolerated dose (MTD), pharmacokinetics (PK) and preliminary antitumor activity were evaluated.
Pharmacodynamic (PD) endpoints were evaluated in surrogate (peripheral blood cells [PBCs], skin) and tumor tissues for the phosphorylation of TORC1-dependent markers (4EBP1/S6), and TORC2-dependent markers (AKT/PRAS40). 50 patients were treated in 3 intermittent dosing regimens; 21 in 6 cohorts ranging 7-40 mg QW, 20 in 5 cohorts ranging 6-20 mg QD×3d QW, and 9 in 3 cohorts ranging 7-13 mg QD×5d QW. […] The MTD for intermittent dosing was not reached. All adverse events (AEs) reported were reversible. The most common (≧20%, n=35) AEs considered possibly related to compound A reported in all 3 dosing regimens included nausea (51%), hyperglycemia (37%), mucosal inflammation (29%), rash (23%), asthenia (23%), vomiting (26%), and diarrhea (20%). The majority of AEs considered possibly related to compound A in any regimen were Grade 1 or 2. The only reported Grade≧3 AE (≧5%) possibly related to compound A in 3 regimens was lymphopenia (6%). Tables 4-9 show summaries of observed adverse events for various treatment regimens of the invention.

CC(C)n1nc(-c2ccc3oc(N)nc3c2)c2c(N)ncnc21 [compound A]
1 (2%): Abdominal pain upper, Grade 3 or greater TEAE (Total, N = 60) | Anaemia, grade 3 or greater TEAE (Total, N = 60) | Aspartate aminotransferase increased, Grade 3 or greater TEAE (Total, N = 60) | Asthenia, grade 3 or greater TEAE (Total, N = 60) | Catheter related infection, Grade 3 or greater TEAE (Total, N = 60) | Cellulitis, Grade 3 or greater TEAE (Total, N = 60) | Disease progression, grade 3 or greater TEAE (Total, N = 60) | Enterocutaneous fistula, Grade 3 or greater TEAE (Total, N = 60) | Gastroenteritis, Grade 3 or greater TEAE (Total, N = 60) | Pancreatitis acute, Grade 3 or greater TEAE (Total, N = 60) | Pleural effusion, Grade 3 or greater TEAE (Total, N = 60) | Rash macular, Grade 3 or greater TEAE (Total, N = 60) | Somnolence, Grade 3 or greater TEAE (Total, N = 60) | Urinary tract infection, Grade 3 or greater TEAE (Total, N = 60)
0 (0%): Aspartate aminotransferase increased, Grade 3 or greater TEAE (Total QD Dosing, N = 25) | Asthenia, grade 3 or greater TEAE (Total QD Dosing, N = 25) | Disease progression, grade 3 or greater TEAE (Total QD Dosing, N = 25) | Gamma-glutamyltransferase increased, Grade 3 or greater TEAE (Total QD Dosing, N = 25) | Gastroenteritis, Grade 3 or greater TEAE (Total QD Dosing, N = 25) | Rash macular, Grade 3 or greater TEAE (Total QD Dosing, N = 25) | Urinary tract infection, Grade 3 or greater TEAE (Total QD Dosing, N = 25) | Abdominal pain upper, Grade 3 or greater TEAE (Total QDx3d QW, N = 14) | Anaemia, grade 3 or greater TEAE (Total QDx3d QW, N = 14) | Aspartate aminotransferase increased, Grade 3 or greater TEAE (Total QDx3d QW, N = 14) | Catheter related infection, Grade 3 or greater TEAE (Total QDx3d QW, N = 14) | Cellulitis, Grade 3 or greater TEAE (Total QDx3d QW, N = 14) | Enterocutaneous fistula, Grade 3 or greater TEAE (Total QDx3d QW, N = 14) | Hypokalaemia, grade 3 or greater TEAE (Total QDx3d QW, N = 14) | Hyponatraemia, grade 3 or greater TEAE (Total QDx3d QW, N = 14) | Pancreatitis acute, Grade 3 or greater TEAE (Total QDx3d QW, N = 14) | Pleural effusion, Grade 3 or greater TEAE (Total QDx3d QW, N = 14) | Pruritus, grade 3 or greater TEAE (Total QDx3d QW, N = 14) | Rash, grade 3 or greater TEAE (Total QDx3d QW, N = 14) | Somnolence, Grade 3 or greater TEAE (Total QDx3d QW, N = 14) | Thrombocytopenia, grade 3 or greater TEAE (Total QDx3d QW, N = 14) | Abdominal pain upper, Grade 3 or greater TEAE (Total QDx5d QW, N = 6) | Anaemia, grade 3 or greater TEAE (Total QDx5d QW, N = 6) | Aspartate aminotransferase increased, Grade 3 or greater TEAE (Total QDx5d QW, N = 6) | Asthenia, grade 3 or greater TEAE (Total QDx5d QW, N = 6) | Catheter related infection, Grade 3 or greater TEAE (Total QDx5d QW, N = 6) | Cellulitis, Grade 3 or greater TEAE (Total QDx5d QW, N = 6) | Diarrhoea, grade 3 or greater TEAE (Total QDx5d QW, N = 6) | Disease progression, grade 3 or greater TEAE (Total QDx5d QW, N = 6) | Enterocutaneous fistula, Grade 3 or greater TEAE (Total QDx5d QW, N = 6) | Gamma-glutamyltransferase increased, Grade 3 or greater TEAE (Total QDx5d QW, N = 6) | Gastroenteritis, Grade 3 or greater TEAE (Total QDx5d QW, N = 6) | Hyperglycaemia, grade 3 or greater TEAE (Total QDx5d QW, N = 6) | Hypokalaemia, grade 3 or greater TEAE (Total QDx5d QW, N = 6) | Hyponatraemia, grade 3 or greater TEAE (Total QDx5d QW, N = 6) | Lymphopenia, grade 3 or greater TEAE (Total QDx5d QW, N = 6) | Pancreatitis acute, Grade 3 or greater TEAE (Total QDx5d QW, N = 6) | Patients Reporting at Least One Grade 3 or Greater TEAE (Total QDx5d QW, N = 6) | Pleural effusion, Grade 3 or greater TEAE (Total QDx5d QW, N = 6) | Pruritus, grade 3 or greater TEAE (Total QDx5d QW, N = 6) | Rash macular, Grade 3 or greater TEAE (Total QDx5d QW, N = 6) | Rash, grade 3 or greater TEAE (Total QDx5d QW, N = 6) | Somnolence, Grade 3 or greater TEAE (Total QDx5d QW, N = 6) | Thrombocytopenia, grade 3 or greater TEAE (Total QDx5d QW, N = 6) | Urinary tract infection, Grade 3 or greater TEAE (Total QDx5d QW, N = 6) | Abdominal pain upper, Grade 3 or greater TEAE (Total QW Dosing, N = 15) | Anaemia, grade 3 or greater TEAE (Total QW Dosing, N = 15) | Asthenia, grade 3 or greater TEAE (Total QW Dosing, N = 15) | Catheter related infection, Grade 3 or greater TEAE (Total QW Dosing, N = 15) | Cellulitis, Grade 3 or greater TEAE (Total QW Dosing, N = 15) | Disease progression, grade 3 or greater TEAE (Total QW Dosing, N = 15) | Enterocutaneous fistula, Grade 3 or greater TEAE (Total QW Dosing, N = 15) | Gastroenteritis, Grade 3 or greater TEAE (Total QW Dosing, N = 15) | Hyperglycaemia, grade 3 or greater TEAE (Total QW Dosing, N = 15) | Hypokalaemia, grade 3 or greater TEAE (Total QW Dosing, N = 15) | Hyponatraemia, grade 3 or greater TEAE (Total QW Dosing, N = 15) | Pancreatitis acute, Grade 3 or greater TEAE (Total QW Dosing, N = 15) | Pleural effusion, Grade 3 or greater TEAE (Total QW Dosing, N = 15) | Pruritus, grade 3 or greater TEAE (Total QW Dosing, N = 15) | Rash macular, Grade 3 or greater TEAE (Total QW Dosing, N = 15) | Rash, grade 3 or greater TEAE (Total QW Dosing, N = 15) | Somnolence, Grade 3 or greater TEAE (Total QW Dosing, N = 15) | Thrombocytopenia, grade 3 or greater TEAE (Total QW Dosing, N = 15) | Urinary tract infection, Grade 3 or greater TEAE (Total QW Dosing, N = 15)
3 (5%): Diarrhoea, grade 3 or greater TEAE (Total, N = 60)
2 (3%): Gamma-glutamyltransferase increased, Grade 3 or greater TEAE (Total, N = 60) | Hypokalaemia, grade 3 or greater TEAE (Total, N = 60) | Hyponatraemia, grade 3 or greater TEAE (Total, N = 60) | Pruritus, grade 3 or greater TEAE (Total, N = 60) | Thrombocytopenia, grade 3 or greater TEAE (Total, N = 60)
1 (7%): Asthenia, grade 3 or greater TEAE (Total QDx3d QW, N = 14) | Diarrhoea, grade 3 or greater TEAE (Total QDx3d QW, N = 14) | Disease progression, grade 3 or greater TEAE (Total QDx3d QW, N = 14) | Gamma-glutamyltransferase increased, Grade 3 or greater TEAE (Total QDx3d QW, N = 14) | Gastroenteritis, Grade 3 or greater TEAE (Total QDx3d QW, N = 14) | Hyperglycaemia, grade 3 or greater TEAE (Total QDx3d QW, N = 14) | Lymphopenia, grade 3 or greater TEAE (Total QDx3d QW, N = 14) | Rash macular, Grade 3 or greater TEAE (Total QDx3d QW, N = 14) | Urinary tract infection, Grade 3 or greater TEAE (Total QDx3d QW, N = 14) | Aspartate aminotransferase increased, Grade 3 or greater TEAE (Total QW Dosing, N = 15) | Diarrhoea, grade 3 or greater TEAE (Total QW Dosing, N = 15) | Gamma-glutamyltransferase increased, Grade 3 or greater TEAE (Total QW Dosing, N = 15) | Lymphopenia, grade 3 or greater TEAE (Total QW Dosing, N = 15)
2 (8%): Hypokalaemia, grade 3 or greater TEAE (Total QD Dosing, N = 25) | Hyponatraemia, grade 3 or greater TEAE (Total QD Dosing, N = 25) | Lymphopenia, grade 3 or greater TEAE (Total QD Dosing, N = 25) | Pruritus, grade 3 or greater TEAE (Total QD Dosing, N = 25) | Thrombocytopenia, grade 3 or greater TEAE (Total QD Dosing, N = 25)
4 (16%): Hyperglycaemia, grade 3 or greater TEAE (Total QD Dosing, N = 25)
7 (50%): Patients Reporting at Least One Grade 3 or Greater TEAE (Total QDx3d QW, N = 14)
7 (28%): Rash, grade 3 or greater TEAE (Total QD Dosing, N = 25)
5 (8%): Hyperglycaemia, grade 3 or greater TEAE (Total, N = 60)
6%: Grade≧3 AE (≧5%) possibly related: lymphopenia (3 regimens)
7 (12%): Rash, grade 3 or greater TEAE (Total, N = 60)
1 (4%): Abdominal pain upper, Grade 3 or greater TEAE (Total QD Dosing, N = 25) | Anaemia, grade 3 or greater TEAE (Total QD Dosing, N = 25) | Catheter related infection, Grade 3 or greater TEAE (Total QD Dosing, N = 25) | Cellulitis, Grade 3 or greater TEAE (Total QD Dosing, N = 25) | Diarrhoea, grade 3 or greater TEAE (Total QD Dosing, N = 25) | Enterocutaneous fistula, Grade 3 or greater TEAE (Total QD Dosing, N = 25) | Pancreatitis acute, Grade 3 or greater TEAE (Total QD Dosing, N = 25) | Pleural effusion, Grade 3 or greater TEAE (Total QD Dosing, N = 25) | Somnolence, Grade 3 or greater TEAE (Total QD Dosing, N = 25)
4 (7%): Lymphopenia, grade 3 or greater TEAE (Total, N = 60)
3 (20%): Patients Reporting at Least One Grade 3 or Greater TEAE (Total QW Dosing, N = 15)
